Experimental data reported in patent publication US20140088144A1, “INHIBITING MICROBIAL INFECTIONS” (THE UNIVERSITY OF KANSAS, priority 2012, published 2014).

Test system: LacI-repressed hts-lacZ fusion
Test: LacI-repressed hts-lacZ control reporter fusion (β-galactosidase)
Assay type: cell-based, E. coli
Details: hts-lacZ control (SME3359)
From the text: The control strain for the secondary high-throughput screen and subsequent experiments was SME3359, and carries the LacI-repressed fusion and LacI-expressing pHG165lacI. The fusion consists of lacZ under the control of an artificial promoter (Phts) with an induced expression level similar to that of the induced rhaBAD operon. Phts is regulated by Lad and induced with IPTG. The Phts core promoter elements include a near-consensus −35 sequence and a −10 sequence followed by a lacO1 operator sequence that overlaps the transcription start site with the same spacing as lacO1 at lacZYA. To construct the upstream half of Phts, oligo 2829 was annealed to oligo 2788 and the primers were extended using the Expand High Fidelity PCR System (Roche Applied Science, Indianapolis, Ind.). The downstream half of the Phts promoter was constructed by similarly annealing and extending oligos 2789 and 2790.
The top hit identified in the screen was 1-ethyl-4-(nitromethyl)-3-quinolin-2-yl-4H-quinoline, Compound 2. […] Lysis/ONPG buffer (50 μL, as in Primary Screen) was added to each well and the plate was immediately placed into a PowerWave XS plate reader (BioTek Instruments, Inc., Winooski, Vt.), set to read the OD420 of each well every 15 min for 4 hr. […] Due to differences in kinetics of lacZ reporter expression, the rhaB-lacZ strains were analyzed at 4 hours and the hts-lacZ strain was analyzed at 1 hr. Percent activity was calculated for each condition as described above, using the single time point with appropriate OD420 levels for each strain. […] IC50 and maximal inhibition values were calculated using the XLfit add-in for Microsoft Excel (ID Business Solutions, Guildford, UK), and graphs were drawn using Prism (GraphPad, La Jolla, Calif.).
In vivo dose-response assays were performed using a procedure described previously. […] Bacterial cultures were mixed with varying concentrations of SE-1 (2.2% DMSO, final), induced with 6.5 mM IPTG for 3 h at 37° C., lysed and β-galactosidase activity was measured. […] IC50 values were calculated and graphs were drawn using Prism (GraphPad, La Jolla, Calif.).

CCCCN1C=C(c2ccc3ccccc3n2)C(C[N+](=O)[O-])c2ccccc21 (centres unmarked) [Compound 1, 1-butyl-4-(nitromethyl)-3-quinolin-2-yl-4H-quinoline] was tested, and the “inhibition of the LacI-repressed fusion” value was “small amount of non-specific inhibition” and the “inhibition of the LacI-repressed fusion” value (listed as SE-1) was “some non-specific inhibition”.
